This assay concerns the target T1, AHR (UniProt P35869).
T1 construct: IC50
T1 sequence (P35869 1-848): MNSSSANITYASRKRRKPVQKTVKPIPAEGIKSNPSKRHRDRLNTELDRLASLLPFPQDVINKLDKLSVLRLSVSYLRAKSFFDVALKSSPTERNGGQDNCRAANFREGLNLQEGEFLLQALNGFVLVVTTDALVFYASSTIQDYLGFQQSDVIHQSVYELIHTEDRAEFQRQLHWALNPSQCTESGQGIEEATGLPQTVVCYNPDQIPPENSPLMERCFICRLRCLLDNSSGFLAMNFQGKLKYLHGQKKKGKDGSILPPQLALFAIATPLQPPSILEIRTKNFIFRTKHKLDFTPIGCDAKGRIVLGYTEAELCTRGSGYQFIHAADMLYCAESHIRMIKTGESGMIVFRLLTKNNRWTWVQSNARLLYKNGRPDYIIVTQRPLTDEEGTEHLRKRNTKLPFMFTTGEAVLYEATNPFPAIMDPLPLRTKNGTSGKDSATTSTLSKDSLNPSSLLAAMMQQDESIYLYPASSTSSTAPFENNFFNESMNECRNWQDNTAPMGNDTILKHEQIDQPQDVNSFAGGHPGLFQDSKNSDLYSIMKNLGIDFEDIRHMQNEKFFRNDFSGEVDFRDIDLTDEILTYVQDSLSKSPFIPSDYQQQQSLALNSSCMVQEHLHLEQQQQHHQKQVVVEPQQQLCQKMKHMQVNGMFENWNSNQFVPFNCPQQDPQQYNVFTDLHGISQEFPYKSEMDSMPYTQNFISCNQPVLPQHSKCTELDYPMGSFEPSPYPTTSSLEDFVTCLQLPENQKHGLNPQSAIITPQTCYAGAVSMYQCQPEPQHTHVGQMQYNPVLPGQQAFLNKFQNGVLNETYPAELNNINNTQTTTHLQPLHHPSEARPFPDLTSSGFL
Nature of the assay: DRE-Luciferase Reporter Assay (Alternate Method) (Example 1B). It counts as cell-based, murine or human. The settings on record: cell line and AHR activating ligand not specified. On the technique in general: In a reporter assay the amount or activity of a reporter protein is the signal.
As usually defined, the IC50 is the midpoint of a concentration-inhibition curve. A lower IC50 goes with greater potency in that assay. Consider `CC(C)c1cnn2c(N[C@H]3CCc4[nH]c5c(F)cccc5c4C3)cc(-c3cncc(F)c3)nc12` [I-212], for which the IC50 is above 1500 nM. In the case of `Fc1cncc(-c2nc(NCCc3c[nH]c4ccccc34)cc(N3CCNCC3)n2)c1` [I-60, 2-(5-Fluoro-3-pyridyl)-N-[2-(1H-indol-3-yl)ethyl]-6-piperazin-1-yl-pyrimidin-4-amine], the IC50 lay within 500 to 1000 nM. Regarding `Cc1cnn2c(-c3cncc(F)c3)cc(NCCc3c[nH]c4ccccc34)nc12` [I-124, 7-(5-Fluoro-3-pyridyl)-N-[2-(1H-indol-3-yl)ethyl]-3-methyl-pyrazolo[1,5-a] pyrimidin-5-amine], the IC50 was above 1500 nM.

Compound `O=C(O)c1cnn2c(NCCc3c[nH]c4ccccc34)cc(-c3cncc(F)c3)nc12` [I-183] showed an IC50 above 1500 nM.

In the case of `CN1CCN(C(=O)c2cnn3c(NC4CCc5[nH]c6ccccc6c5C4)nc(-c4cncc(F)c4)nc23)CC1` (stereo not drawn) [I-251], the IC50 is above 1500 nM.

The compound `Cc1cnn2c(N[C@H](Cc3c[nH]c4ccccc34)CN(C)C)cc(-c3cncc(F)c3)nc12` [I-174] yielded an IC50 above 1500 nM. Compound `OCc1cnn2c(NCCc3c[nH]c4ccc(O)cc34)cc(-c3cncc(F)c3)nc12` [I-143, 3-[2-[[5-(5-fluoro-3-pyridyl)-3-(hydroxymethyl)pyrazolo[1,5-a]pyrimidin-7-yl]amino]ethyl]-1H-indol-5-ol] came in with an IC50 above 1500 nM. The compound `CC(C)c1cnn2c(NCCc3c[nH]c4ccccc34)cc(-c3cncnc3)nc12` [I-241, N-[2-(1H-Indol-3-yl)ethyl]-3-isopropyl-5-pyrimidin-5-yl-pyrazolo[1,5-a]pyrimidin-7-amine] gave an IC50 below 500 nM. In turn, `CC(C)c1cnn2c(N[C@H]3CCc4[nH]c5ccccc5c4C3)cc(-c3cncc(F)c3)nc12` [I-75b, (3S)—N-[5-(5-Fluoro-3-pyridyl)-3-isopropyl-pyrazolo[1,5-a]pyrimidin-7-yl]-2,3,4,9-tetrahydro-1H-carbazol-3-amine] returned an IC50 above 1500 nM.

With `CC(C)c1cnn2c(N[C@@H]3CCc4[nH]c5ccccc5c4C3)nc(-c3cccnc3)nc12` [I-255, (3R)—N-[8-Isopropyl-2-(3-pyridyl)pyrazolo[1,5-a][1,3,5]triazin-4-yl]-2,3,4,9-tetrahydro-1H-carbazol-3-amine], the IC50 was below 500 nM. Regarding `Fc1cncc(-c2cc(N[C@@H]3CCc4[nH]c5ccccc5c4C3)n3ncc(C(F)(F)F)c3n2)c1` [I-35, (3R)—N-[5-(5-Fluoro-3-pyridyl)-3-(trifluoromethyl)pyrazolo[1,5-a]pyrimidin-7-yl]-2,3,4,9-tetrahydro-1H-carbazol-3-amine], the IC50 was above 1500 nM.

Compound `Fc1cncc(-c2nc(N[C@@H]3CCc4[nH]c5ccccc5c4C3)c3nccn3n2)c1` [I-256, (3R)—N-[2-(5-fluoro-3-pyridyl)imidazo[2,1-f][1,2,4]triazin-4-yl]-2,3,4,9-tetrahydro-1H-carbazol-3-amine] yielded a half-inhibitory concentration (IC50) below 500 nM. `CNC(=O)C(Cc1c[nH]c2ccccc12)Nc1cc(-c2cncc(F)c2)nc2c(C)cnn12` (stereo not drawn) [I-182]: the concentration for half-maximal inhibition (IC50) was above 1500 nM.

`NC(=O)c1cnn2c(N[C@@H]3CCc4[nH]c5ccccc5c4C3)nc(-c3cncc(F)c3)nc12` [I-265, 2-(5-Fluoro-3-pyridyl)-4-[[(3R)-2,3,4,9-tetrahydro-1H-carbazol-3-yl]amino]pyrazolo[1,5-a][1,3,5]triazine-8-carboxamide] gave an IC50 below 500 nM. Compound `OCc1cnn2c(NC3CCc4[nH]c5ccccc5c4C3)nc(-c3cncc(F)c3)nc12` (stereo not drawn) [I-278] showed an IC50 below 500 nM. `CC(C)c1cnn2c(NCCc3c[nH]c4ccccc34)ccnc12` [I-31, N-[2-(1H-indol-3-yl)ethyl]-3-isopropyl-pyrazolo[1,5-a]pyrimidin-7-amine] returned an IC50 above 1500 nM. Compound `CNCc1cnn2c(NC3CCc4[nH]c5ccccc5c4C3)nc(-c3cncc(F)c3)nc12` (stereo not drawn) [I-277] returned an IC50 below 500 nM.

As for `COc1ccccc1-c1cc(NCCc2c[nH]c3ccccc23)n2ncc(C(C)C)c2n1` [I-240, N-[2-(1H-indol-3-yl)ethyl]-3-isopropyl-5-(2-methoxyphenyl)pyrazolo[1,5-a]pyrimidin-7-amine], the IC50 was above 1500 nM. Regarding `CC(C)c1cnn2c(NC3CCc4[nH]c5ccccc5c4C3)cc(-c3cccc(F)c3)nc12` (stereo not drawn) [I-238], the IC50 was above 1500 nM. The compound `Cc1cnn2c(N[C@@H]3CCc4[nH]c5c(F)cc(F)cc5c4C3)cc(-c3cncc(F)c3)nc12` [I-243a] had an IC50 above 1500 nM. In turn, `CC(C)c1cnn2c(NC3CC3c3ccc(O)cc3)cc(-c3cncc(F)c3)nc12` (stereo not drawn) [I-181] showed a half-inhibitory concentration (IC50) above 1500 nM.

Compound `CNC(=O)c1cnn2c(NCCc3c[nH]c4ccccc34)cc(-c3cncc(F)c3)nc12` [I-61, 5-(5-Fluoro-3-pyridyl)-7-[2-(1H-indol-3-yl)ethylamino]-N-methyl-pyrazolo[1,5-a]pyrimidine-3-carboxamide] came in with an IC50 below 500 nM.

Turning to `CC(C)Oc1cc(NCCc2c[nH]c3cccnc23)nc(-c2cncc(F)c2)n1` [I-104, 2-(5-Fluoro-3-pyridyl)-6-isopropoxy-N-[2-(1H-pyrrolo[3,2-b]pyridin-3-yl)ethyl]pyrimidin-4-amine], the IC50 lay within 500 to 1000 nM. With `Fc1cncc(-c2ccnc(NCCc3c[nH]c4ccccc34)n2)c1` [I-120, 4-(5-Fluoro-3-pyridyl)-N-[2-(1H-indol-3-yl)ethyl]pyrimidin-2-amine] the figure was above 1500 nM; with `OCc1cnn2c(NCCc3c[nH]c4ccccc34)cc(-c3cncc(F)c3)nc12` [I-197, [5-(5-Fluoro-3-pyridyl)-7-[2-(1H-indol-3-yl)ethylamino]pyrazolo[1,5-a]pyrimidin-3-yl]methanol], below 500 nM; with `Cc1cnn2c(NCCc3ccccc3)cc(-c3cncc(F)c3)nc12` [I-218, 5-(5-fluoro-3-pyridyl)-3-methyl-N-(2-phenylethyl)pyrazolo[1,5-a]pyrimidin-7-amine], below 500 nM. Next, `CC(C)Oc1nc(NCCc2c[nH]c3ccccc23)nc(-c2cncc(F)c2)n1` [I-136, 4-(5-Fluoro-3-pyridyl)-N-[2-(1H-indol-3-yl)ethyl]-6-isopropoxy-1,3,5-triazin-2-amine]: below 500 nM; `CC(C)Oc1cc(NCCc2c[nH]c3c(F)cc(F)cc23)nc(-c2cncc(F)c2)n1` [I-88, N-[2-(5,7-Difluoro-1H-indol-3-yl)ethyl]-2-(5-fluoro-3-pyridyl)-6-isopropoxy-pyrimidin-4-amine]: 500 to 1000 nM; `CC(C)c1cnn2c(N[C@@H]3CCc4[nH]c5ccccc5c4C3)nc(-c3cccc(F)c3)nc12` [I-121, (3R)—N-[2-(3-Fluorophenyl)-8-isopropyl-pyrazolo[1,5-a][1,3,5]triazin-4-yl]-2,3,4,9-tetrahydro-1H-carbazol-3-amine]: above 1500 nM. Compound `Fc1cncc(-c2nc(NC3CCc4[nH]c5ccccc5c4C3)n3ncc(-c4cnc[nH]4)c3n2)c1` (stereo not drawn) [I-274] had an IC50 below 500 nM. `CC(C)c1cnn2c(N[C@@H]3CCc4[nH]c5ccccc5c4C3)nc(C3CCOCC3)nc12` [I-258, (3R)—N-(8-Isopropyl-2-tetrahydropyran-4-yl-pyrazolo[1,5-a][1,3,5]triazin-4-yl)-2,3,4,9-tetrahydro-1H-carbazol-3-amine]: the IC50 is above 1500 nM. With `Cc1cnn2c(NC(Cc3c[nH]c4ccccc34)C(N)=O)cc(-c3cncc(F)c3)nc12` (stereo not drawn) [I-190b] the figure was above 1500 nM; with `CC(C)n1cnc2c(NCCc3cnc4ccccn34)nc(-c3cncc(F)c3)nc21` [I-15, 2-(5-Fluoro-3-pyridyl)-N-(2-imidazo[1,2-a]pyridin-3-ylethyl)-9-isopropyl-purin-6-amine], below 500 nM.

Regarding `Cc1cnn2c(NCC3(c4c[nH]c5ccccc45)CC3)cc(-c3cncc(F)c3)nc12` [I-167], the concentration for half-maximal inhibition (IC50) is above 1500 nM.

`CC(C)c1cnn2c(N[C@@H]3CCc4[nH]c5c(F)cc(F)cc5c4C3)nc(-c3cncc(F)c3)nc12` [I-139b, (3R)-6,8-difluoro-N-[2-(5-fluoro-3-pyridyl)-8-isopropyl-pyrazolo[1,5-a][1,3,5]triazin-4-yl]-2,3,4,9-tetrahydro-1H-carbazol-3-amine] returned an IC50 below 500 nM.

Compound `Cc1[nH]c2c(F)cc(F)cc2c1CCNc1nc(-c2cncc(F)c2)nc2c1ncn2C(C)C` [I-11, N-(2-(5,7-Difluoro-2-methyl-1H-indol-3-yl)ethyl)-2-(5-fluoropyridin-3-yl)-9-isopropyl-9H-purin-6-amine] had an IC50 below 500 nM. Next, `O=C(c1cnn2c(NCCc3c[nH]c4ccccc34)cc(-c3cncc(F)c3)nc12)N1CCNCC1` [I-58, [5-(5-Fluoro-3-pyridyl)-7-[2-(1H-indol-3-yl)ethylamino]pyrazolo[1,5-a]pyrimidin-3-yl]-piperazin-1-yl-methanone]: above 1500 nM; `Cc1cnn2c(N[C@H]3CCc4[nH]c5c(F)cc(F)cc5c4C3)cc(-c3cncc(F)c3)nc12` [I-243b]: above 1500 nM.

Turning to `Cc1cnn2c(NCCc3ccc(N)cc3)cc(-c3cncc(F)c3)nc12` [I-211, N-[2-(4-Aminophenyl)ethyl]-5-(5-fluoro-3-pyridyl)-3-methyl-pyrazolo[1,5-a]pyrimidin-7-amine], the IC50 was above 1500 nM.
